Experimental data as given in the supplement of paper PMC12819154, “High-throughput peptide-centric local stability assay extends protein–ligand identification to membrane proteins, tissues and bacteria” (Nature Structural & Molecular Biology, 2025).

Experiments:
Assay in all cases: pEC50 of peptide local stability change
UniProt P30176 = settings: peptide sequence: AKFEQHAELR; direction: stabilized; replicate design: treated separately
Experimental: (§1)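 Dose-response HT-PELSA: desalted E. coli lysate treated separately per replicate with ATP (10 uM to 10 mM, 7 doses) for 30 min at 25 C, then a 4 min trypsin pulse at 22 C. Peptide ratio vs control was fitted with a 4-parameter log-logistic model (R2 > 0.9 in at least 3 replicates, CV of pEC50 <= 0.25); value is the mean pEC50 across replicates for stabilized or destabilized peptides.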

UniProt P07821 = settings: peptide sequence: LVDSLSGGER; direction: stabilized; replicate design: treated separately
Experimental: as §1

UniProt P40719 = settings: peptide sequence: RFTSDAAHELR; direction: stabilized; replicate design: treated separately
Experimental: as §1

UniProt P27296 = settings: peptide sequence: AQIAAWYK; direction: stabilized; replicate design: treated separately
UniProt P27296, sequence (P27296 whole entry): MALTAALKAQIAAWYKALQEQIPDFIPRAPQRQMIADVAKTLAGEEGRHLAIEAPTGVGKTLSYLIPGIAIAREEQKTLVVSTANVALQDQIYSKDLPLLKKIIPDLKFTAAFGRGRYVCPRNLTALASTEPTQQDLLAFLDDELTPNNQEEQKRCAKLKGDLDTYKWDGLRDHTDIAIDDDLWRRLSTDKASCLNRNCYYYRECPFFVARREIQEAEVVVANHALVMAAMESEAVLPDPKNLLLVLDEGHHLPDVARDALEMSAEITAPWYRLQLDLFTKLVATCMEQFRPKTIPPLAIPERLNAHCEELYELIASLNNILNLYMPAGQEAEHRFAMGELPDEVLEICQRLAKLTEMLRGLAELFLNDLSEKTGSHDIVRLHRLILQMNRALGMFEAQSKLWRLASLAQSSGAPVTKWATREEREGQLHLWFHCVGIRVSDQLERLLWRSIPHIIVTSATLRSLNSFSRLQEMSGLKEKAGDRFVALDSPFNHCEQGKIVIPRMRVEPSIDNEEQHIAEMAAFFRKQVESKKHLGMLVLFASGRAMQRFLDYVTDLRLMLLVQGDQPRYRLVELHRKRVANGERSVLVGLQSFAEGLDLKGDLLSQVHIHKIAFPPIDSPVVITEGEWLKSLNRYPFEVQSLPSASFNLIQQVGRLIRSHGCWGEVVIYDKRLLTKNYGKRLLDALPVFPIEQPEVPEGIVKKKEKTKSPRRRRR
Experimental: as §1

UniProt Q46927 = settings: peptide sequence: AALIAYCR; direction: stabilized; replicate design: treated separately
UniProt Q46927, sequence (Q46927 whole entry): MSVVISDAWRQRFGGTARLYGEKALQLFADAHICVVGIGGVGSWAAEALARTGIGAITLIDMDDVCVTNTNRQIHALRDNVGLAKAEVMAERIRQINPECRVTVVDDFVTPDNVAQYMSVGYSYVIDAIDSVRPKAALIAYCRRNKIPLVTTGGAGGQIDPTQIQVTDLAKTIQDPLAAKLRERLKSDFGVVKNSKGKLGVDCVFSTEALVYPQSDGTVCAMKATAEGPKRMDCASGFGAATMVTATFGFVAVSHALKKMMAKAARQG
Experimental: as §1

UniProt P33593 = settings: peptide sequence: LADDVAVMSDGK; direction: stabilized; replicate design: treated separately
UniProt P33593, sequence (P33593 whole entry): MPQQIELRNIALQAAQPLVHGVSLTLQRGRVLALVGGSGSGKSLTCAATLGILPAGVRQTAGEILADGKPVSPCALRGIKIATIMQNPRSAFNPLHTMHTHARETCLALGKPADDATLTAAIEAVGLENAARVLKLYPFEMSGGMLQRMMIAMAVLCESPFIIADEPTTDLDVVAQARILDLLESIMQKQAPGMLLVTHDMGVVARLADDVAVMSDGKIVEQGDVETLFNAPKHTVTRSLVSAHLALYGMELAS
Experimental: as §1

UniProt P15038 = settings: peptide sequence: AVVNGEHSLLVLAGAGSGK; direction: stabilized; replicate design: treated separately
Experimental: as §1

UniProt P31663 = settings: peptide sequence: NGYLTAEQR; direction: stabilized; replicate design: treated separately
Experimental: as §1

UniProt P21693 = settings: peptide sequence: DSLQHAPHIIVATPGR; direction: stabilized; replicate design: treated separately
UniProt P21693, sequence (P21693 whole entry): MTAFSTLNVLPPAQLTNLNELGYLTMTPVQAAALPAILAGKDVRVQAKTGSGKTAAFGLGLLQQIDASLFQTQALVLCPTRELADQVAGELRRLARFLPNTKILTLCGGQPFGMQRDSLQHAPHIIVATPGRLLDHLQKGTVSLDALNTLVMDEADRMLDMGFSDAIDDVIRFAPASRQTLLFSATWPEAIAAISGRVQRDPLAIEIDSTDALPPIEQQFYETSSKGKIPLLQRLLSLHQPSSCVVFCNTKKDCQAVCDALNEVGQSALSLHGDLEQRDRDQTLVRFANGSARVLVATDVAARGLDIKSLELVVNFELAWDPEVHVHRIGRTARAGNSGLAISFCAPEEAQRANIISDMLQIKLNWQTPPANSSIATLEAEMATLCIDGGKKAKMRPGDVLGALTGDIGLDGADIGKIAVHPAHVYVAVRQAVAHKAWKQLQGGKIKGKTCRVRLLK
Experimental: as §1

UniProt P0ACW4 = settings: peptide sequence: GGISHCTAGGKFVCNDGSISASK; direction: stabilized; replicate design: treated separately
UniProt P0ACW4, sequence (P0ACW4 whole entry): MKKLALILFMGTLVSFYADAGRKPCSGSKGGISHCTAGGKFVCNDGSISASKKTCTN
Experimental: as §1

UniProt P0A8F8 = settings: peptide sequence: VLVTTLTKR; direction: stabilized; replicate design: treated separately
UniProt P0A8F8, sequence (P0A8F8 whole entry): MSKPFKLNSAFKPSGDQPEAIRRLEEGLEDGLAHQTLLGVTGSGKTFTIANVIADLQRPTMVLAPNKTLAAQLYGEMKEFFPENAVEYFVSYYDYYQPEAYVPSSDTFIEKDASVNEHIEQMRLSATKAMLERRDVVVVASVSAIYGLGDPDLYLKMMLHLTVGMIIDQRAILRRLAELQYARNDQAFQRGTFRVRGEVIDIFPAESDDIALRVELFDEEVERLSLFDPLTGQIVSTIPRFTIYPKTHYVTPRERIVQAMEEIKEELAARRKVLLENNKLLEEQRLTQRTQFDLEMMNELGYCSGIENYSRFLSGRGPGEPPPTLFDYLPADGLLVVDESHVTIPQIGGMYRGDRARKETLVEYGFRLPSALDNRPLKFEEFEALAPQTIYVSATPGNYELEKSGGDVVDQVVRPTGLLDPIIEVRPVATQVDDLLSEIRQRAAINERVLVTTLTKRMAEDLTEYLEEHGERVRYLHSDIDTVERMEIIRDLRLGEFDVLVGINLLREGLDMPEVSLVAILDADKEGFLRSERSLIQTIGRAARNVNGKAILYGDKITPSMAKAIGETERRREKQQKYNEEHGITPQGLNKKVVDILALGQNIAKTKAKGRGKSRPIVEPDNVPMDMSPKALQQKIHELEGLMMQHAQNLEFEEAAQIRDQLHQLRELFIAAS
Experimental: as §1

UniProt P31142 = settings: peptide sequence: FNAEVDEPRPGLR; direction: stabilized; replicate design: treated separately
UniProt P31142, sequence (P31142 whole entry): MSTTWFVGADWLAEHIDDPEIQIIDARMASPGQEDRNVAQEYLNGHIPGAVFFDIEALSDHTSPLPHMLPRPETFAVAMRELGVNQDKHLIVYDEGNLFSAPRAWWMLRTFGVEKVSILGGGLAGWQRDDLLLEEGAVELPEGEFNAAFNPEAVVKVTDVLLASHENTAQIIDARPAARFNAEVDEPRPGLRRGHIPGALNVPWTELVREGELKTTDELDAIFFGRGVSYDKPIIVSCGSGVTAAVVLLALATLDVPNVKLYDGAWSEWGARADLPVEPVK
Experimental: as §1

UniProt P28903 = settings: peptide sequence: KGDPNYDIK; direction: stabilized; replicate design: treated separately
Experimental: as §1

UniProt P39383 = settings: peptide sequence: QLVDFADK; direction: stabilized; replicate design: treated separately
UniProt P39383, sequence (P39383 whole entry): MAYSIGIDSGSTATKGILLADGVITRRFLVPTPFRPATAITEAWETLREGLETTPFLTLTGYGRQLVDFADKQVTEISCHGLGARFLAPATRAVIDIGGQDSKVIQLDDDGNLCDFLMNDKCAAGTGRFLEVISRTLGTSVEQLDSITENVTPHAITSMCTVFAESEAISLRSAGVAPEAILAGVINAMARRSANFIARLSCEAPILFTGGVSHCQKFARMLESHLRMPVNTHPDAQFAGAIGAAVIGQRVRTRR
Experimental: as §1

UniProt P15034 = settings: peptide sequence: RAGEITAMAHTR; direction: stabilized; replicate design: treated separately
Experimental: as §1

UniProt Q46802 = settings: peptide sequence: GAFTGASANGK; direction: stabilized; replicate design: treated separately
Experimental: as §1

UniProt P75957 = settings: peptide sequence: KKPAEINSR; direction: stabilized; replicate design: treated separately
UniProt P75957, sequence (P75957 whole entry): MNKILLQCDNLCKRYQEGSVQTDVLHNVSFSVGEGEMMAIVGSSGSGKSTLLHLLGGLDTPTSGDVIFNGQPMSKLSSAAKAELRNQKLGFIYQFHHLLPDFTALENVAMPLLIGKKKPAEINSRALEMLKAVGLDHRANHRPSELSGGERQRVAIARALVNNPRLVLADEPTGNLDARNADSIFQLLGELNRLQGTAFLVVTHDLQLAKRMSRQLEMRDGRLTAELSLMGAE
Experimental: as §1

UniProt P43329 = settings: peptide sequence: HTEILPLYAR; direction: stabilized; replicate design: treated separately
Experimental: as §1

UniProt P04425 = settings: peptide sequence: GTLIVNKPQSLR; direction: stabilized; replicate design: treated separately
Experimental: as §1

UniProt P07604 = settings: peptide sequence: YAWPGNVR; direction: stabilized; replicate design: treated separately
UniProt P07604, sequence (P07604 whole entry): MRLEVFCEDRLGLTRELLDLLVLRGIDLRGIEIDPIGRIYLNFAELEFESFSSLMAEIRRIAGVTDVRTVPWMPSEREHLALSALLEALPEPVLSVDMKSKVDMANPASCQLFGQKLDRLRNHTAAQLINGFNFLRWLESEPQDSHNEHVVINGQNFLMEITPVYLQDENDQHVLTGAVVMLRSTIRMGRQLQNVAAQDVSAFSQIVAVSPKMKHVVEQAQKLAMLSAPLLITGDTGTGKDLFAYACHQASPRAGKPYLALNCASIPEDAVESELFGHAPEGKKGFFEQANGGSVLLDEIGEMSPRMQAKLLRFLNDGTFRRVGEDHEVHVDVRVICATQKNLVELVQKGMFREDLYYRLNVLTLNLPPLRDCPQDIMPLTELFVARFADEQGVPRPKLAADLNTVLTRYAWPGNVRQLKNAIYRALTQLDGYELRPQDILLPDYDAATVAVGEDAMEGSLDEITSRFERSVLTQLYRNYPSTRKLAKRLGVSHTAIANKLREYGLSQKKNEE
Experimental: as §1

MurD = MurD (UniProt P14900); settings: peptide sequence: YLNGDNVR; direction: stabilized; replicate design: treated separately
MurD, sequence (P14900 whole entry): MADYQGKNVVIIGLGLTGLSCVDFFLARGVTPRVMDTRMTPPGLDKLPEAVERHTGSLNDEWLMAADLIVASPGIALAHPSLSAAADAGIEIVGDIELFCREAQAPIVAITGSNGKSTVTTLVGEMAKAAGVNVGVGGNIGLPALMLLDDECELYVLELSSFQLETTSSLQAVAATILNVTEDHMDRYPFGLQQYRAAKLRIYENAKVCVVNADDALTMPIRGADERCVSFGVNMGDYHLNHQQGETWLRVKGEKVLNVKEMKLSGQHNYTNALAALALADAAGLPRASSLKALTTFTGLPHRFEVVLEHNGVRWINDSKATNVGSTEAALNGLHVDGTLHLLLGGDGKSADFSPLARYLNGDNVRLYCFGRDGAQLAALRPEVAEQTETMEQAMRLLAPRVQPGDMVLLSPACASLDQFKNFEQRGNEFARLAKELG
Experimental: as §1

UniProt P37344 = settings: peptide sequence: ETLLNYR; direction: stabilized; replicate design: treated separately
UniProt P37344, sequence (P37344 whole entry): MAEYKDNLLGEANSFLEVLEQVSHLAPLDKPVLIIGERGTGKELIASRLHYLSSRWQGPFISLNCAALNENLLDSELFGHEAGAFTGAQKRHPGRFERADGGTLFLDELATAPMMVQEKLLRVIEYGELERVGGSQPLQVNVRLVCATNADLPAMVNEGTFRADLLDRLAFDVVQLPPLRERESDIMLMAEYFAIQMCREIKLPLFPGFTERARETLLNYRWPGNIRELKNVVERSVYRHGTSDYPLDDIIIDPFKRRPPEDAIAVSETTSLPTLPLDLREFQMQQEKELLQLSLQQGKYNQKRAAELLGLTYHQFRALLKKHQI
Experimental: as §1

UniProt P25539 = settings: peptide sequence: HVGPDVCLHLVGA; direction: stabilized; replicate design: treated separately
Experimental: as §1

UniProt P24182 = settings: peptide sequence: LMGDKVSAIAAMKK; direction: stabilized; replicate design: treated separately
Experimental: as §1

UniProt P0AA41 = settings: peptide sequence: EDKGPQPAVTHYR; direction: stabilized; replicate design: treated separately
Experimental: as §1

UniProt P11868 = settings: peptide sequence: HIAGHAASLR; direction: stabilized; replicate design: treated separately
Experimental: as §1

UniProt P23874 = settings: peptide sequence: ISVAGAQEK; direction: stabilized; replicate design: treated separately
UniProt P23874, sequence (P23874 whole entry): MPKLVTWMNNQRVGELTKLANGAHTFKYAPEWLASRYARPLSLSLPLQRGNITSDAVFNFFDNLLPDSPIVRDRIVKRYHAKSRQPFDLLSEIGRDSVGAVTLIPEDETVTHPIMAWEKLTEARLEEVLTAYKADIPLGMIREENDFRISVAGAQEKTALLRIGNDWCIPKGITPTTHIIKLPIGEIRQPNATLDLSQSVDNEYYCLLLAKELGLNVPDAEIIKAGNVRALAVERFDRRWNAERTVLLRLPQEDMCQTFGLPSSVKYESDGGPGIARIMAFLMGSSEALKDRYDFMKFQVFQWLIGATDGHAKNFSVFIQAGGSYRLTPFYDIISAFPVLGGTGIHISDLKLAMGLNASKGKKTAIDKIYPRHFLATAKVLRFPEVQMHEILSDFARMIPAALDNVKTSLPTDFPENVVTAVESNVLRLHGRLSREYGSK
Experimental: as §1

UniProt Q06065 = settings: peptide sequence: QPVCNAGEVK; direction: stabilized; replicate design: treated separately
Experimental: as §1

UniProt P00363 = settings: peptide sequence: LAGEQATER; direction: stabilized; replicate design: treated separately
Experimental: as §1

UniProt P31808 = settings: peptide sequence: TGMTFDAQPGR; direction: stabilized; replicate design: treated separately
Experimental: as §1

UniProt P06710 = settings: peptide sequence: ALDVEQIR; direction: stabilized; replicate design: treated separately
Experimental: as §1

Nc1ncnc2c1ncn2[C@@H]1O[C@H](COP(=O)(O)OP(=O)(O)OP(=O)(O)O)[C@@H](O)[C@H]1O [adenosine 5'-triphosphate]
Settings	pEC50 of peptide local stability change
MurD	3.82
UniProt P0A8F8	2.14
UniProt P0AA41	2.34
UniProt P0ACW4	2.19
UniProt P00363	2.48
UniProt P04425	3.85
UniProt P06710	3.78
UniProt P07604	4.06
UniProt P07821	3.1
UniProt P11868	3.41
UniProt P15034	3.83
UniProt P15038	3.67
UniProt P21693	3.65
UniProt P23874	3.78
UniProt P24182	3.89
UniProt P25539	2.74
UniProt P27296	3.36
UniProt P28903	2.76
UniProt P30176	2.71
UniProt P31142	3.24
UniProt P31663	4.25
UniProt P31808	2.09
UniProt P33593	4.43
UniProt P37344	3.2
UniProt P39383	3.31
UniProt P40719	3.59
UniProt P43329	3.11
UniProt P75957	3.56
UniProt Q06065	3.47
UniProt Q46802	3.29
UniProt Q46927	3.69
